Data on 29 compounds can be found in patent US10112950B2, “Substituted imidazo[1,2-a]pyrazines as LSD1 inhibitors” (Incyte Corporation, priority 2014, dated 2018).

As a reminder, the IC50 is the point on the concentration scale where inhibition reaches its midpoint. Low values mean greater potency, high ones weaker potency.

This assay addresses LSD-1 enzyme (Homo sapiens (Human), UniProt O60341). Nature of the assay: LANCE LSD1/KDM1A demethylase assay (LSD1 histone demethylase biochemical assay). The note with it: 1 nM LSD-1 enzyme, 1 hour preincubation at 25° C., 0.4 μM Biotin-labeled Histone H3 peptide substrate. As to the method: LSD1 Histone Demethylase Biochemical Assay
LANCE LSD1/KDM1A demethylase assay-10 μL of 1 nM LSD-1 enzyme (ENZO BML-SE544-0050) in the assay buffer (50 mM Tris, pH 7.5, 0.01% Tween-20, 25 mM NaCl, 5 mM DTT) were preincubated for 1 hour at 25° C. with 0.8 μL compound/DMSO dotted in black 384 well polystyrene plates. […] Reactions were stopped by addition of 10 μL 1× LANCE Detection Buffer (PerkinElmer CR97-100) supplemented with 1.5 nM Eu-anti-unmodified H3K4 Antibody (PerkinElmer TRF0404), and 225 nM LANCE Ultra Streptavidin (PerkinElmer TRF102) along with 0.9 mM Tranylcypromine-HCl (Millipore 616431). After stopping the reactions plates were incubated for 30 minutes and read on a PHERAstar FS plate reader (BMG Labtech).

Where only a bound is given, the exact number is not on record here.

`Cc1cc(-c2c(-c3ccc(C#N)cc3)nc(N3CCC(N(C)C)CC3)c3nccn23)cc(F)c1CO` [Example 97, 4-{8-[4-(dimethylamino)piperidin-1-yl]-5-[3-fluoro-4-(hydroxymethyl)-5-methylphenyl]imidazo[1,2-a]pyrazin-6-yl}benzonitrile] displayed an IC50 of no more than 50 nM. With `CNC(=O)c1cn2c(-c3ccc(C)cc3)c(-c3ccc(C#N)cc3)nc(OC[C@@H]3CCNC3)c2n1` [Example 37, 6-(4-cyanophenyl)-N-methyl-5-(4-methylphenyl)-8-[(3R)-pyrrolidin-3-ylmethoxy]imidazol-[1,2-a]pyrazine-2-carboxamide] the figure was no more than 50 nM.

Turning to `Cc1ccc(-c2c(-c3ccc(C#N)cc3)nc(OC[C@@H]3CCCN(C)C3)c3nccn23)cc1` [Example 12, 4-(5-(4-methylphenyl)-8-{[(3R)-1-methylpiperidin-3-yl]methoxy}imidazo[1,2-a]pyrazin-6-yl)benzonitrile], the IC50 was no more than 50 nM.

The compound `CN1CCC[C@@H](COc2nc(-c3ccc(C#N)cc3)c(-c3cc(F)c4c(c3)CCC4O)n3ccnc23)C1` (stereo partly drawn) [Example 88, 4-(5-(7-fluoro-1-hydroxy-2,3-dihydro-1H-inden-5-yl)-8-{[(3R)-1-methylpiperidin-3-yl]methoxy}imidazo[1,2-a]pyrazin-6-yl)benzonitrile] showed an IC50 of no more than 50 nM.

Consider `CN(C)C1CCN(c2nc(-c3ccc(C#N)cc3)c(-c3ccc4nccnc4c3)n3ccnc23)CC1` [Example 101, 4-{8-[4-(dimethylamino)piperidin-1-yl]-5-quinoxalin-6-ylimidazo[1,2-a]pyrazin-6-yl}benzonitrile], for which the IC50 was no more than 50 nM.

On to `Cc1cc(-c2c(-c3ccc(C#N)cc3)nc(OC[C@@H]3CCCN(C)C3)c3nccn23)cc(F)c1CO` [Example 81, 4-(5-[3-fluoro-4-(hydroxymethyl)-5-methylphenyl]-8-{[(3R)-1-methylpiperidin-3-yl]methoxy}imidazo[1,2-a]pyrazin-6-yl)benzonitrile], for which the IC50 was no more than 50 nM. With `CN1CCC[C@@H](COc2nc(-c3ccc(C#N)cc3)c(-c3ccc(N(C)CC4CCCO4)nc3)n3ccnc23)C1` (stereo partly drawn) [Example 52, 4-(8-{[(3R)-1-methylpiperidin-3-yl]methoxy}-5-{6-[methyl(tetrahydrofuran-2-ylmethyl)amino]pyridin-3-yl}imidazo[1,2-a]pyrazin-6-yl)benzonitrile] the figure was no more than 50 nM; with `CN1CCN(c2ccc(-c3c(-c4ccc(C#N)cc4)nc(N4CCC(N(C)C)CC4)c4nccn34)cn2)C1=O` [Example 100, 4-{8-[4-(dimethylamino)piperidin-1-yl]-5-[6-(3-methyl-2-oxoimidazolidin-1-yl)pyridin-3-yl]imidazo[1,2-a]pyrazin-6-yl}benzonitrile], no more than 50 nM; with `Cc1ccc(-c2c(-c3ccc(C#N)cc3)nc(OC[C@@H]3CCNC3)c3nc(C(=O)N(C)C)cn23)cc1` [Example 38, 6-(4-cyanophenyl)-N,N-dimethyl-5-(4-methylphenyl)-8-[(3R)-pyrrolidin-3-ylmethoxy]imidazo[1,2-a]pyrazine-2-carboxamide], no more than 50 nM. With `Cc1ccc(-c2c(-c3ccc(C#N)cc3)nc(OC[C@@H]3CCNC3)c3nc(CC#N)cn23)cc1` [Example 36, 4-{2-(cyanomethyl)-5-(4-methylphenyl)-8-[(3R)-pyrrolidin-3-ylmethoxy]imidazol[1,2-a]pyrazin-6-yl}benzonitrile] the figure was no more than 50 nM; with `Cc1ccc(-c2c(-c3ccc(C#N)cc3)nc(OC[C@@H]3CCCN(C)C3)c3nccn23)cc1C#N` [Example 69, 5-(6-(4-cyanophenyl)-8-{[(3R)-1-methylpiperidin-3-yl]methoxy}imidazo[1,2-a]pyrazin-5-yl)-2-methylbenzonitrile], no more than 50 nM. `CN1C(=O)COc2cc(-c3c(-c4ccc(C#N)cc4)nc(N4CCC(N(C)C)CC4)c4nccn34)ccc21` [Example 60, 4-[8-[4-(dimethylamino)piperidin-1-yl]-5-(4-methyl-3-oxo-3,4-dihydro-2H-1,4-benzoxazin-7-yl)imidazo[1,2-a]pyrazin-6-yl]benzonitrile] came in with an IC50 of no more than 50 nM.

Take `CN1CCC[C@@H](COc2nc(-c3ccc(C#N)cc3)c(-c3cnc4c(ccn4C)c3)n3ccnc23)C1` [Example 53, 4-[8-{[(3R)-1-methylpiperidin-3-yl]methoxy}-5-(1-methyl-1H-pyrrolo[2,3-b]pyridin-5-yl)imidazo[1,2-a]pyrazin-6-yl]benzonitrile]: the IC50 was no more than 50 nM. Compound `Cc1ccc(-c2c(-c3ccc(C#N)cc3)nc(OC[C@@H]3CCCN(C)C3)c3nccn23)cc1C(C)O` (stereo partly drawn) [Example 87, 4-(5-[3-(1-hydroxyethyl)-4-methylphenyl]-8-{[(3R)-1-methylpiperidin-3-yl]methoxy}imidazo[1,2-a]pyrazin-6-yl)benzonitrile] registered a concentration for half-maximal inhibition (IC50) of no more than 50 nM.

In turn, `CN(C)C1CCN(c2nc(-c3ccc(C#N)cc3)c(-c3ccc(N4CCOC4=O)nc3)n3ccnc23)CC1` [Example 67, 4-{8-[4-(dimethylamino)piperidin-1-yl]-5-[6-(2-oxo-1,3-oxazolidin-3-yl)pyridin-3-yl]imidazo[1,2-a]pyrazin-6-yl}benzonitrile] yielded a half-maximal inhibitory concentration (IC50) of no more than 50 nM. With `CN(C)C1CCN(c2nc(-c3ccc(C#N)cc3)c(-c3cnc4c(cnn4C)c3)n3ccnc23)CC1` [Example 58, 4-[8-[4-(dimethylamino)piperidin-1-yl]-5-(1-methyl-1H-pyrazolo[3,4-b]pyridin-5-yl)imidazo[1,2-a]pyrazin-6-yl]benzonitrile] the figure was no more than 50 nM; with `CN(C)C1CCN(c2nc(-c3ccc(C#N)cc3)c(-c3cnc4c(c3)oc(=O)n4C)n3ccnc23)CC1` [Example 66, 4-[8-[4-(dimethylamino)piperidin-1-yl]-5-(3-methyl-2-oxo-2,3-dihydro[1,3]oxazolo[4,5-b]pyridin-6-yl)imidazo[1,2-a]pyrazin-6-yl]benzonitrile], no more than 50 nM; with `Cc1ccc(-c2c(-c3ccc(C#N)cc3)nc(OC[C@@H]3CCNC3)c3nc(CNCC4CC4)cn23)cc1` [Example 44, 4-{2-{[(cyclopropylmethyl)amino]methyl}-5-(4-methylphenyl)-8-[(3R)-pyrrolidin-3-ylmethoxy]imidazo[1,2-a]pyrazin-6-yl}benzonitrile], no more than 50 nM. For `Cc1ccc(-c2c(-c3ccc(C#N)cc3)nc(OC[C@H]3CCCNC3)c3nccn23)cc1` [Example 10, 4-{5-(4-methylphenyl)-8-[(3S)-piperidin-3-ylmethoxy]imidazol[1,2-a]pyrazin-6-yl}benzonitrile], the IC50 is no more than 50 nM. For the compound `Cc1ccc(-c2c(-c3ccc(C#N)cc3)nc(CN3CC[C@@H](N(C)C)C3)c3nccn23)cc1` [Example 5, 4-[8-{[(3R)-3-(dimethylamino)pyrrolidin-1-yl]methyl}-5-(4-methylphenyl)imidazo[1,2-a]pyrazin-6-yl]benzonitrile], the IC50 is no more than 50 nM. With `Cc1ccc(-c2c(-c3ccc(C#N)cc3)nc(N3CCC(N(C)C)CC3)c3nccn23)cc1CO` [Example 96, 4-{8-[4-(dimethylamino)piperidin-1-yl]-5-[3-(hydroxymethyl)-4-methylphenyl]imidazo[1,2-a]pyrazin-6-yl}benzonitrile] the figure was no more than 50 nM; with `COc1ncc(-c2c(-c3ccc(C#N)cc3)nc(N3CCC(N(C)C)CC3)c3nccn23)cc1O` [Example 118, 4-[8-[4-(dimethylamino)piperidin-1-yl]-5-(5-hydroxy-6-methoxypyridin-3-yl)imidazo[1,2-a]pyrazin-6-yl]benzonitrile], no more than 50 nM. Take `N#Cc1ccc(-c2nc(OC[C@@H]3CCNC3)c3nccn3c2-c2ccc(N3CCCCC3)cc2)cc1` [Example 29, 4-{5-(4-piperidin-1-ylphenyl)-8-[(3R)-pyrrolidin-3-ylmethoxy]imidazo[1,2-a]pyrazin-6-yl}benzonitrile]: the IC50 was no more than 50 nM. Consider `Cc1ccc(-c2c(-c3ccc(C#N)cc3)nc(SC[C@@H]3CCNC3)c3nccn23)cc1` [Example 13, 4-(5-(4-methylphenyl)-8-{[(3R)-pyrrolidin-3-ylmethyl]thio}imidazo[1,2-a]pyrazin-6-yl)benzonitrile], for which the IC50 was no more than 50 nM. In the case of `Cc1ncc(-c2c(-c3ccc(C#N)cc3)nc(N3CCC(N(C)C)CC3)c3nccn23)cc1O` [Example 94, 4-[8-[4-(dimethylamino)piperidin-1-yl]-5-(5-hydroxy-6-methylpyridin-3-yl)imidazo[1,2-a]pyrazin-6-yl]benzonitrile], the IC50 is no more than 50 nM. In the case of `Cc1ccc(-c2c(-c3ccc(C#N)cc3)nc(OC[C@@H]3CCNC3)c3nc(C)cn23)cc1` [Example 33, 4-{2-methyl-5-(4-methylphenyl)-8-[(3R)-pyrrolidin-3-ylmethoxy]imidazo[1,2-a]pyrazin-6-yl}benzonitrile], the IC50 was no more than 50 nM. As for `CN1CCC[C@@H](COc2nc(-c3ccc(C#N)cc3)c(-c3ccc4c(c3)C(O)CC4)n3ccnc23)C1` (stereo partly drawn) [Example 73, 4-(5-(3-hydroxy-2,3-dihydro-1H-1-inden-5-yl)-8-{[(3R)-1-methylpiperidin-3-yl]methoxy}imidazo[1,2-a]pyrazin-6-yl)benzonitrile], the IC50 is no more than 50 nM. With `Cc1ccc(-c2c(-c3ccc(C#N)cc3)nc(N3CCC(N(C)C)CC3)c3nccn23)cc1` [Example 14, 4-[8-[4-(dimethylamino)piperidin-1-yl]-5-(4-methylphenyl)imidazo[1,2-a]pyrazin-6-yl]benzonitrile] the figure was no more than 50 nM.

As for `Cc1ccc(-c2c(-c3ccc(C#N)cc3)nc(OC[C@@H]3CCNC3)c3nc(CNc4ccon4)cn23)cc1` [Example 45, 4-{2-[(isoxazol-3-ylamino)methyl]-5-(4-methylphenyl)-8-[(3R)-pyrrolidin-3-ylmethoxy]imidazo[1,2-a]pyrazin-6-yl}benzonitrile], the IC50 was no more than 50 nM.
